{"source": "patent US20250084091A1", "about": "“INHIBITORS OF SARS-COV-2” (The Texas A&M University System, priority 2021, published 2025)", "note": "pIC50: −log10 of the molar value."}
{"target": "SARS-CoV-2 main protease (Mpro) (Severe acute respiratory syndrome coronavirus 2, UniProt P0DTD1)", "assay": "biochemical", "conditions": "Table 2; read-out: Enzyme IC50"}
{"smiles": "O=C(c1cncc2cc[nH]c12)N1CCC(N(c2ccccc2)c2ccccc2)CC1", "note": "[AA-667, [4-(N-phenylanilino)-1-piperidyl]-(1H-pyrrolo[3,2-c]pyridin-7-yl)methanone]", "pIC50": 5.48}
{"smiles": "O=C(c1cncc(Br)c1)N1CCN(C(c2ccccc2)c2cccnc2)CC1", "note": "(centres unmarked) [MKP-1200, 1-(5-bromopyridine-3-carbonyl)-4-[phenyl(pyridin-3-yl)methyl]piperazine]", "pIC50": 6.49}
{"smiles": "COc1cccc(C(c2ccccc2)N2CCN(C(=O)c3cccnc3)CC2)c1", "note": "(centres unmarked) [MKP-1203, 1-[(3-methoxyphenyl)(phenyl)methyl]-4-(pyridine-3-carbonyl)piperazine]", "pIC50": 5.55}
{"smiles": "COc1cccc(C(c2ccccc2)N2CCN(C(=O)c3cncc(Cl)c3)CC2)c1", "note": "(centres unmarked) [MKP-1205, 1-(5-chloropyridine-3-carbonyl)-4-[(3-methoxyphenyl)(phenyl)methyl] piperazine]", "pIC50": 6.26}
{"smiles": "Cc1cncc(C(=O)N2CCC(=C(c3cccc(F)c3)c3cccc(F)c3)CC2)c1", "note": "[MKP-1349, (4-(bis(3-fluorophenyl)methylene)piperidin-1-yl)(5-methylpyridin-3-yl)methanone]", "pIC50": 7.38}
{"smiles": "Cc1cncc(C(=O)N2CCC(=C(c3ccc(F)cc3)c3cccc(F)c3)CC2)c1", "note": "[MKP-1359, (4-((3-fluorophenyl)(4-fluorophenyl)methylene)piperidin-1-yl)(5-methylpyridin-3-yl)methanone]", "pIC50": 7.36}
{"smiles": "Cc1cncc(C(=O)N2CCC(=C(c3ccccc3)c3cccc(F)c3)CC2)c1", "note": "[MKP-1360, (4-((3-fluorophenyl)(phenyl)methylene)piperidin-1-yl)(5-methylpyridin-3-yl)methanone]", "pIC50": 7.46}
{"smiles": "Cc1cncc(C(=O)N2CCC(=C(c3cccc(O)c3)c3cccc(O)c3)CC2)c1", "note": "[MKP-1381, (4-(bis(3-hydroxyphenyl)methylene)piperidin-1-yl)(5-methylpyridin-3-yl)methanone]", "pIC50": 7.03}
{"smiles": "Cc1cncc(C(=O)N2CCC(=C(c3cccnc3)c3cccc(O)c3)CC2)c1", "note": "[MKP-1392, (4-((3-hydroxyphenyl)(pyridin-3-yl)methylene)piperidin-1-yl)(5-methylpyridin-3-yl)methanone]", "pIC50": 7.03}
{"smiles": "Cc1cncc(C(=O)N2CCC(=C(c3ccccc3)c3ccncc3)CC2)c1", "note": "[MKP-1398, (5-methylpyridin-3-yl)(4-(phenyl(pyridin-4-yl)methylene)piperidin-1-yl)methanone]", "pIC50": 6.24}
{"smiles": "Cc1cncc(C(=O)N2CCC(=C(c3ccccc3)c3ccccn3)CC2)c1", "note": "[MKP-1400, (5-methylpyridin-3-yl)(4-(phenyl(pyridin-2-yl)methylene)piperidin-1-yl)methanone]", "pIC50": 7.13}
{"smiles": "Cc1cncc(C(=O)N2CCC(N(c3cccc(F)c3)c3cccc(F)c3)CC2)c1", "note": "[MKP-1404, (4-(bis(3-fluorophenyl)amino)piperidin-1-yl)(5-methylpyridin-3-yl)methanone]", "pIC50": 5.58}
{"smiles": "O=C(c1cncc2cc[nH]c12)N1CCC(=C(c2cccc(O)c2)c2cccc(O)c2)CC1", "note": "[MKP-1410, (4-(bis(3-hydroxyphenyl)methylene)piperidin-1-yl)(1H-pyrrolo[3,2-c]pyridin-7-yl)methanone]", "pIC50": 7.39}
{"smiles": "Cc1cncc(C(=O)N2CCN(C(c3ccccc3)c3ccccn3)CC2)c1", "note": "(centres unmarked) [MKP-1416, (5-methylpyridin-3-yl)(4-(phenyl(pyridin-2-yl)methyl)piperazin-1-yl)methanone]", "pIC50": 6.75}
{"target": "SARS-CoV-2 main protease (Mpro) (Severe acute respiratory syndrome coronavirus 2, UniProt P0DTD1)", "assay": "biochemical", "conditions": "read-out: Enzyme inhibition @ 20 uM", "units": {"inhibition at 20 µM": "%"}}
{"smiles": "O=C(C1CNCCO1)N1CCN(C(c2ccccc2)c2ccccc2)CC1", "note": "(centres unmarked) [AA-582, (4-benzhydrylpiperazin-1-yl)(morpholin-2-yl)methanone]", "inhibition at 20 µM": 60}
{"smiles": "O=C(c1cnccn1)N1CCN(C(c2ccccc2)c2cccnc2)CC1", "note": "(centres unmarked) [MKP-1188, 2-{4-[phenyl(pyridin-3-yl)methyl]piperazine-1-carbonyl}pyrazine]", "inhibition at 20 µM": 50}
{"smiles": "O=C(c1cncnc1)N1CCN(C(c2ccccc2)c2cccnc2)CC1", "note": "(centres unmarked) [MKP-1189, 5-{4-[phenyl(pyridin-3-yl)methyl]piperazine-1-carbonyl}pyrimidine]", "inhibition at 20 µM": 60}
